Experimental data taken from patent publication US7101844B2, “Cytoplasmic transduction peptides and uses thereof” (Creagene, Inc., priority 2002, dated 2006).
“Also recorded” adds a separate entry of the source.

Experiments:
[1] = test system: HeLa cells; assay: Transduction of PTD- and CTP-β-galactosidase into HeLa cells (X-gal staining after fixation); assay type: cell-based; details: for order of transduction potentials into HeLa cells: β-galactosidase fusion, X-gal staining; for order of transduction potentials into HeLa cells / transduction potential: 100 μg/ml, 1 hr; for transduction potential: fixation
Description: Although various other substitutions could be performed, it is essential in this invention that the introduction of a positive charge by arginine and the substitution by an α-helix stabilizing amino acid should be carried out for maintaining the principle function of the PTD peptide. Therefore, as a substitute amino acid, the positively charged amino acid is restricted to arginine, and the negatively charged amino acid is restricted to glutamic acid. β-galactosidase was fused to the CTP candidate peptide, the fusion proteins were isolated and purified (see FIG. 2), and HeLa cells were treated with each of the fusion proteins. This was then followed by an analysis of the transduction potential and a determination of the extent of the cytoplasmic remaining property.
The transduction potential of the PTD and CTP candidates was tested with HeLa cells. Using a 24-well plate (Nunc), 5×10^4 HeLa cells were inoculated into high glucose DMEM (containing 10% FBS) and cultured for 36 hr. The cells were rinsed with PBS and treated with 100 μg/ml of PTD- and CTP-β-galactosidase in an opti-MEM I medium. After 1-hr incubation, cells were fixed for 10 min at room temperature with a fixation solution (2% formaldehyde, 0.2% glutaraldehyde in PBS). Then, the cells were rinsed twice with PBS, and stained for 2 hr with dye (0.1% X-gal, 5 mM potassium ferricyanide, 5 mM potassium ferrocyanide, 2 mM MgCl2 in PBS) to examine their transduction potential (see FIG. 3). The samples showing a low level of staining, even after a 2-hr staining, were incubated overnight, and then stained for the relative transduction potential. The transduction potentials of the PTD and CTP candidates into HeLa cells were seen to be in the following order: PTD5<CTP502<<CTP501=CTP506<CTP507<CTP505<CTP503=CTP504<CTP508=CTP510=MTS<CTP509<<PTD=CTP511<<CTP512.

[2] = test system: HeLa cells; assay: Subcellular localization of CTP-FITC by confocal microscope without cell fixation; assay type: cell-based; details: FITC-labeled peptide, 25 μg/ml, 1 hr
Description: Fixation step is inevitable for examining the subcellular localization of the transduced β-gal in the cells with antibodies. However, according to the previous reports, the fusion protein attached to cell surface is very likely to be introduced into the cell during a cell fixation procedure, which may affect its transduction potential and its subcellular localization. However, FITC-labeled membrane permeation peptides allow its subcellular localization to be observed under a confocal microscope without cell fixation. Monolayered HeLa cells were treated for 1 hr with FITC-labeled CTP, PTD or MTS at a concentration of 25 μg/ml, and washed three times with HBSS, followed by observation under a confocal microscope without cell fixation.

[3] = cited from earlier work
[4] = test system: HeLa cells; assay: Subcellular localization of CTP-β-gal by confocal scanning microscope; assay type: cell-based; details: β-galactosidase fusion protein, 100 μg/ml, 1 hr
Description: To select cytoplamic transduction peptides (CTPs) of interest, HeLa cells were transduced with CTP-β-galactosidase, and then examined under the confocal scanning microscope. Before the confocal analysis, cells were stained with mouse anti-β-galactosidase antibody and 2nd antibodies conjugated with FITC (Fluorescence-iso-thio-cyanate) or with PE (phycoerythrin) together with DNA staining reagent (green fluorescence SYTO-16 DNA staining dye, Molecular Probe). First, HeLa cells (5×10^5 cells/ml) were plated onto a 6-well plate containing sterilized cover-slips and cultured overnight at 37° C. CO2 incubator. The cells were washed with PBS (pH 7.4) and 1 ml of an OPTI-MEM I medium was added, followed by treatment with candidate CTP-fused proteins (100 μg/ml). As a positive control, PTD-β-galactosidase fusion protein was employed, and as a negative control, only β-galactosidase protein was used. Following the treatment with candidate CTP-β-galactosidase fusion proteins, cells were incubated for 1 hr at 37° C. incubator. The cells were rinsed three times with PBS and fixed with 2% paraformaldehyde for 20 min at 4° C. HeLa cells fixed were washed twice with washing buffer (PBS containing 0.2% BSA and 0.02% sodium azide). To stain the cells with antibody, cells were pre-treated with 0.5% Triton X-100 (in PBS, Sigma) at 4° C. for 20 min. Cells were washed three times with washing buffer and then stained with mouse anti-β-galactosidase antibody (diluted 1:2,000, Sigma) for 1 hr at 4° C. as a primary antibody and then washed three times with washing buffer. Cells were then incubated with FITC-conjugated goat anti-mouse IgG (diluted 1:2,000, Jackson Laboratory) as a secondary antibody for 20 min at 4° C. Washed 3 times with the same washing buffer, cells were fixed on a slide glass with fluorescence mounting medium (DAKO) and the edge of slide glass was sealed with nail vanish.
Double staining was carried out with SYTO-16 DNA staining dye as follows: First, the cells were incubated with the primary antibodies under the same conditions and rinsed three times. Then, the cells were incubated at 4° C. for 20 min with PE-conjugated goat anti-mouse IgG PE (diluted 1:2,000, Jackson Laboratory). Washed three times with washing buffer, cells were incubated with SYTO-16 DNA staining dye (diluted 1:1,000, DAKO) for 20 min at 4° C. Cells were fixed and sealed on a slide glass and then examined under a confocal laser scanning microscope.
In the present experiment, LEICA TCS NT SP confocal microscope (LEICA Lasertech GmbH, Heidelverg, Germany) was employed, which was equipped with lager generator of argon (Ar) and krypton (Kr), scanning device, and filter capable of detecting FITC (510–550 nm) and PE (600–660) at independent channel. Photographs were taken by PL-APO X100 objective. For single staining, the cells were sectioned into 4-layers and fluorescence and transmission photographs were taken. For double staining, FITC, PE, and transmission photographs were taken using optimal respective filter.

[5] = test system: HeLa cells; assay: Transduction potential of CTP-β-gal following treatment with trypsin (staining); assay type: cell-based; details: 50 μg/ml, 20 hr, trypsin before fixation
Experimental: HeLa cells were cultured for 1 day in DMEM (high glucose) at a density of 2×10^5/ml in 48-well plates. Cells were washed once with 1× PBS, and then incubated further for additional 20 hr in OPTI-MEM containing PTD-β-gal, MTS-β-gal, CTP501-β-gal or CTP514-β-gal, respectively, at a concentration of 50 μg/ml. Thereafter, the cells were treated with trypsin-EDTA (10×) for 3 min at 37° C. to remove the CPP-β-gal attached to the cell surface, and then rinsed twice with 1× PBS, followed by fixing with a fixation solution for 10 min at room temperature. After washing twice with 1× PBS, the cells were stained with a staining solution for 2 hr at 37° C. and photographed under a microscope (FIG. 6b).

[6] = β-galactosidase fusion protein, HeLa cells

Row | Substance | order of transduction potentials into HeLa cells [1] | transduction potential [1, 6] | cytoplasmic remaining property / subcellular localization [4] | also measured
1 | CTP510: CTP candidate (2G4R), sequence YGRRARRAARR | CTP508=CTP510=MTS | – | – | –
2 | CTP506: CTP candidate (2E4E), sequence YEREARRAARR | CTP501=CTP506<CTP507 | low-potential | – | –
3 | YGRKKRRQRRR [PTD, protein transduction domain of HIV-1 Tat protein, reference compound] | CTP509<<PTD=CTP511 | – | – | subcellular localization [2]: FITC signal only in the nucleus, but not in the cytoplasm
4 | CTP502: CTP candidate (2P), sequence YPRAARRAARR | PTD5<CTP502<<CTP501 | low-potential | – | –
5 | RRRRRRRRR [Arg polycationic homopolymer] | – | – | – | transduction efficiency greater than Tat PTD ([3]; Wender et al., 2000): 20 fold
6 | CTP504: CTP candidate (2G), sequence YGRAARRAARR | CTP503=CTP504<CTP508 | excellent transduction potential | high cytoplasmic remaining property | transduction potential as percentage of wild type PTD fusion protein [1, 6]: 10%; transduction potential higher than PTD5 [1, 6]: 20 fold
7 | CTP508: CTP candidate (4K), sequence YARKARRAARR | CTP504<CTP508=CTP510=MTS | excellent transduction potential; also recorded: transduction potential lower than wild type PTD; also recorded: significantly high transduction potential | much stronger cytoplasmic remaining property than PTD; also recorded: much higher than the wild type PTD; also recorded: significantly high | transduction potential as percentage of wild type PTD fusion protein [1, 6]: 20%; subcellular localization [2]: observed only in the cytoplasm, and not in the nucleus
8 | CTP514: CTP (2R4R5R8R9R), sequence YRRRRRRRRRR | – | – | – | β-gal activity transduced into cells [5]: almost equivalent to that of the PTD; subcellular localization [2]: observed only in the cytoplasm, and not in the nucleus
9 | CTP505: CTP candidate (4E), sequence YAREARRAARR | CTP507<CTP505<CTP503 | excellent transduction potential | – | –
10 | PTD5: PTD derivative of the Dowdy group; differs from CTP504 only by alanine at position 2, i.e. YARAARRAARR (CTP50, Table 1) [reference compound] | PTD5<CTP502 | – | relatively increased pattern in terms of the extent it remains in the cytoplasm as compared to PTD | efficiency of delivering peptides into the cell, higher than PTD (TAT) ([3]; peptides, reported by the Dowdy group): 8 fold
11 | CTP509: CTP candidate (2K4K), sequence YKRKARRAARR | MTS<CTP509<<PTD | transduction potential higher than CTP508; also recorded: transduction potential lower than wild type PTD; also recorded: significantly high transduction potential | much stronger cytoplasmic remaining property than PTD; also recorded: much higher than the wild type PTD; also recorded: significantly high | –
12 | CTP513: CTP (2G4R5R8R9R), sequence YGRRRRRRRRR | – | – | – | β-gal activity transduced into cells [5]: much more efficient to transduce β-gal into cells than either PTD or MTS; order of transduction potential [2]: CTP512>513>>514; subcellular localization [2]: observed only in the cytoplasm, and not in the nucleus
13 | CTP501: CTP candidate (1P), sequence PARAARRAARR | CTP502<<CTP501=CTP506 | low-potential | – | –
14 | CTP511: CTP candidate (2G4R8R), sequence YGRRARRRARR | PTD=CTP511<<CTP512 | transduction potential similar to the wild type PTD; also recorded: significantly high transduction potential | significantly high | transduction potential ([1]; β-galactosidase fusion protein, HeLa cells, listed as CTP 511): transduction potential identical to PTD; cytoplasmic remaining property / subcellular localization ([4]; listed as CTP 511): excellent cytoplasmic remaining property; β-gal activity transduced into cells [5]: almost equivalent to that of the PTD
15 | CTP503: CTP candidate (2R11A), sequence YRRAARRAARA | CTP505<CTP503=CTP504 | excellent transduction potential | – | –
16 | CTP507: CTP candidate (2K), sequence YKRAARRAARR | CTP506<CTP507<CTP505 | low-potential; also recorded: excellent transduction potential | – | –
